{"source": "patent US10441663B2", "about": "“Methods for treating cancer” (Bicycle Therapeutics Limited, priority 2016, dated 2019)", "test_system": "LU-01-0046 non-small-cell lung carcinoma (NSCLC) PDX model", "assay": "Efficacy in LU-01-0046 NSCLC PDX model (high MT1-expressing, docetaxel resistant)", "assay_type": "in vivo, Balb/C nude mice", "text": "The objective of the project is to evaluate the in vivo therapeutic efficacy of test articles in the LU-01-0046 non-small-cell lung carcinoma (NSCLC) PDX model. LU-01-0046 is a high MT1-expressing NSCLC that is docetaxel resistant.\nEach mouse was inoculated subcutaneously at the right flank with certain kind of tumor fragment (30 mm3) for tumor development. The treatments started when the average tumor volume reaches approximately 150-200 mm^3. The test article administration and the animal numbers in each group are shown in Table 40 which details the experimental design.\nTreatment was given until the control tumors reached an average of 1000 mm^3.\nBefore commencement of treatment all animals will be weighed and the tumor volumes will be measured. Since the tumor volume can affect the effectiveness of any given treatment, mice will be assigned into groups using randomized block design based upon their tumor volumes.\nThe protocol and any amendment(s) or procedures involving the care and use of animals in this study will be reviewed and approved prior to conduct. […] At the time of routine monitoring, the animals will be checked for any effects of tumor growth and treatments on normal behavior such as mobility, food and water consumption, body weight gain/loss (body weights will be measured twice weekly), eye/hair matting and any other abnormal effect. Death and observed clinical signs will be recorded on the basis of the numbers of animals within each subset.\nThe major endpoint is to see if the tumor growth can be delayed or mice can be cured. Tumor sizes will be measured twice weekly in two dimensions using a caliper and the volume will be expressed in mm^3 using the formula: V=0.5 a×b^2 where a and b are the long and short diameters of the tumor, respectively. […] T-C is calculated with T as the median time (in days) required for the treatment group tumors to reach a predetermined size (e.g., 1.000 mm^3), and C is the median time (in days) for the control group tumors to reach the same size. […]\nTGI is calculated for each group using the formula. […]", "note": "*1 amine or outer side, *2 acyl side, *3 side chain or, on linkers, in order; H or OH if unused. Where a SMILES comes first, the peptide text is derived from it. Bridges are numbered along the chain shown (N, C = ends). [ ]: non-standard residue; d: D form. The star is where a group is joined. X1 = COc1cc2cc(c1Cl)N(C)C(=O)C[C@H](OC(=O)[C@H](C)N(C)C(=O)CCSSC(C)CCC(=O)*)[C@]1(C)O[C@H]1[C@H](C)[C@@H]1C[C@@](O)(NC(=O)O1)[C@H](OC)/C=C/C=C(\\C)C2; 1Nal = N[C@@H](Cc1cccc2ccccc12)C(=O)O; TBMB = c1c(C[*:1])cc(C[*:3])cc1C[*:2]; Tle = CC(C)(C)[C@H](N)C(=O)O; βAla = NCCC(=O)O; Sar = CNCC(=O)O"}
{"smiles": "COc1cc2cc(c1Cl)N(C)C(=O)C[C@H](OC(=O)[C@H](C)N(C)C(=O)CCSSC(C)CCC(=O)NCCC(=O)N(C)CC(=O)N(C)CC(=O)N(C)CC(=O)N(C)CC(=O)N(C)CC(=O)N(C)CC(=O)N(C)CC(=O)N(C)CC(=O)N(C)CC(=O)N(C)CC(=O)N[C@@H](C)C(=O)N[C@H]1CSCc3cc4cc(c3)CSC[C@H](NC(=O)[C@@H](C)NC(=O)[C@H](Cc3cccc5ccccc35)NC(=O)[C@H](CCC(=O)O)NC(=O)[C@H](CC(N)=O)NC(=O)[C@@H](C)NC1=O)C(=O)N[C@@H](CCC(=O)O)C(=O)N[C@@H](CC(=O)O)C(=O)N[C@@H](Cc1ccccc1)C(=O)N[C@@H](Cc1ccc(O)cc1)C(=O)N[C@@H](CC(=O)O)C(=O)N[C@@H](C(C)(C)C)C(=O)N[C@H](C(N)=O)CSC4)[C@]1(C)O[C@H]1[C@H](C)[C@@H]1C[C@@](O)(NC(=O)O1)[C@H](OC)/C=C/C=C(\\C)C2", "note": "(stereo partly drawn) [BT1718] ({X1-βAla}-[Sar][Sar][Sar][Sar][Sar][Sar][Sar][Sar][Sar][Sar]AC[dA]NE[1Nal][dA]CEDFYD[Tle]C-NH2; linker 12-18-25 via TBMB (inferred))", "values": [{"measurement": "tumor response", "setting": "3 mg/kg biw", "result": "tumor stasis"}, {"measurement": "relapse after cessation of dosing", "setting": "10 mg/kg biw", "result": "lack of relapse"}, {"measurement": "tumor response", "setting": "10 mg/kg biw", "result": "tumor eradication"}]}
